Laboratory results taken from patent US6350839B2, “Hydrolysis-stable and polymerizable acrylophosphonic acid monoesters” (Ivoclar Vivadent AG, priority 2000, dated 2002).
≈ marks a conversion by molar mass, not a printed value. Where two headings read alike, the source gives them in different places.

Key:
Assay type in all cases: physicochemical
[1] = Solubility of monomer in water and ethanol
Method: (§1) The solubility of monomer 1 in water and ethanol was determined and the pH value of a 20% solution of the monomer in a 1:1 mixture of ethanol and water measured.

[2] = pH value (acid strength) of a 20% monomer solution; settings: text: 1:1 mixture of ethanol and water
Method: as §1

[3] = Hydrolytic stability by weekly 1H-NMR of stored solution; settings: 20% solution in 1:1 water/ethanol, stored at 37° C., 8-week investigation period
Method: Monomer 1 is dissolved in a 1:1 mixture of water and ethanol and a 20% solution is stored at 37° C. The ^1H-NMR spectrum of the solution is recorded weekly.

[4] = water, read-out: water solubility

Compound	solubility in ethanol ([1]; ethanol)	solubility [1, 4] [mg/mL]	pH value of a 20% solution [2]	solubility ([1]; ethanol, organic solvent or mixture, read-out: solubility in ethanol) [mg/mL]	hydrolytic stability (change in 1H-NMR spectrum) [3]
C=C(COCCP(=O)(O)O)C(=O)O [Comparison monomer, 2-[4-dihydroxyphosphoryl-2-oxa-butyl]-acrylic acid, reference compound]	practically insoluble	~400 (≈ 1900 mM)	1.25	–	–
C=C(COCCP(=O)(O)OC)C(=O)O [Monomer 1, 2-[4-hydroxymethoxyphosphoryl-2-oxa-butyl]-acrylic acid]	–	> 500	0.61	> 500	no change in the spectrum
